The values below come from patent publication EP2627439B1, “METHOD FOR SOLUBILIZING CARBOXYLIC ACID-CONTAINING COMPOUND IN HYDROCARBON SOLVENT” (Dow Global Technologies LLC, priority 2011, dated 2013).

This series is described as follows: Solubility measurement of acid chlorides containing one carboxylic acid moiety in hydrocarbon solvents (saturated solutions, proton NMR). The format is physicochemical. The following applies: saturated solution, 20°C and 101 kPa. Here is the method: Solubility measurement of acid chlorides containing one carboxylic acid moiety in hydrocarbon solvents with and without solubility enhancing additives: • Saturated solutions of sample acid chlorides containing carboxylic acid moieties were prepared in hydrocarbon solvents with and without the presence of trialkylphosphate additives by adding more sample than will dissolve in the solvent and decanting the saturated solvent from the undissolved precipitate. The saturated solutions were evaluated by proton NMR. Deuterated Isopar L is not commercially available, thus all spectra were acquired in the unlocked condition using regular Isopar L. Because of the very high proton concentration in running a non-deuterated solvent, 60° pulse and minimum receiver gain were used to avoid receiver overflow. A relaxation delay of 8 seconds was used for complete signal recovery between scans. The spectral width was set to 20 ppm and the center of the spectrum was set to 5 ppm. Depending on the concentrations of the species of interest, 64-256 scans were used for signal averaging.
The area of the Isopar L peaks between 0.75 and 2.0 ppm were measure and divided by 26 (which represents the average H's present in Isopar L, assuming a molecular formula of C12H26) and multiplied by 170.33, the formula weight of C12H26. The peak area of the aromatic acid chlorides containing carboxylates are between 8.9 - 9.2 ppm and are well resolved from the Isopar solvent. The integration of one of the assigned peaks (for example, the triplet of mono-hydrolyzed TMC at 9.0 ppm represents a single proton) was used to determine the relative weight of the sample in the Isopar L solvent. The integration is divided by the number of protons it represents and multiplied by the formula weight of the compound it represents (for example, the triplet of mono-hydrolyzed TMC at 9.0 ppm would be divided by 1 and multiplied by 247.03 g/mol). The wt% of mono-hydrolyzed TMC in the saturated solution is determined by dividing the value obtained for mono-hydrolyzed TMC by the value obtained for Isopar L.
In the presence of tributylphosphate (TBP), the Isopar L value must be corrected since a few protons of TBP cannot be resolved from the Isopar L peaks. This is done by integrating the -OCH2-protons of TBP which are well resolved at ∼4.05 ppm, dividing this value by 6 (for 6 protons). This area value is then multiplied by 21 (represents the three -CH2CH2CH3 that are unresolved from the Isopar L peak) and subtracted from the peak area of Isopar L. Table 2: […]

For `O=C(O)c1cccc(C(=O)Cl)c1` [mhIPC], the “Solubility (wt%)” value is, setting by setting: (Solvent: Isopar L + 0.47 wt% TBP) 0.29 wt%; (Solvent: Isopar L, no additive) below 0.02 wt%.
On to `O=C(O)c1cc(C(=O)Cl)cc(C(=O)Cl)c1` [mhTMC, mono-hydrolyzed trimesoyl chloride], for which the “Solubility (wt%)” value is, setting by setting: (Solvent: 80/20 Isopar L / Toluene, no additive) 0.05 wt%; (Solvent: 80/20 Isopar L/Toluene + 0.25 wt% TBP) 0.29 wt%; (Solvent: Isopar L + 1 wt% TEHP) 0.11 wt%; (Solvent: Isopar L + 1 wt% TEP) 0.2 wt%; (Solvent: Isopar L, no additive) 0.02 wt%.
